Legend:
[1] = target: T1, Endonuclease 8-like 2 (Homo sapiens) (UniProt Q969S2); details: Compound Concentration 10.0 uM, Hit No;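 note: fluorescence at 594 nm reports NEIL2 cutting and release of a quenched double-stranded DNA oligo substrate, reduced signal read as inhibition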
T1 sequence (whole entry): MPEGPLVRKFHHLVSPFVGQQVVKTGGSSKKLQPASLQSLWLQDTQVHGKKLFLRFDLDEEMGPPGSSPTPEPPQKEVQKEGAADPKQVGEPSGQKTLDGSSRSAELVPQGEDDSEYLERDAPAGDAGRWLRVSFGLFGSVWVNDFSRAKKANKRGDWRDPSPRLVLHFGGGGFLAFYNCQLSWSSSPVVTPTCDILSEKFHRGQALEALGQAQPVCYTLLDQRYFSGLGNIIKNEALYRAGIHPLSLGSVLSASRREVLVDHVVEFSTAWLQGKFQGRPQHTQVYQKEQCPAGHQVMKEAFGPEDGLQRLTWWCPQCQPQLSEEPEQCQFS
Description: Inhibition of NEIL2 by quantifying inhibition of NEIL2-mediated cleavage and dissociation of quenched duplex DNA oligonucleotides, measured as fluorescence at 594 nm.

[2] = target: Endonuclease 8-like 1 (Homo sapiens) (UniProt Q96FI4); details: Compound Concentration 10.0 uM, Hit No;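 note: fluorescence at 594 nm from quenched duplex DNA oligonucleotides released by NEIL1 cleavage and strand separation, reported as reduction of this enzyme activity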
Chain of Endonuclease 8-like 1 (Homo sapiens) (Q96FI4 whole entry): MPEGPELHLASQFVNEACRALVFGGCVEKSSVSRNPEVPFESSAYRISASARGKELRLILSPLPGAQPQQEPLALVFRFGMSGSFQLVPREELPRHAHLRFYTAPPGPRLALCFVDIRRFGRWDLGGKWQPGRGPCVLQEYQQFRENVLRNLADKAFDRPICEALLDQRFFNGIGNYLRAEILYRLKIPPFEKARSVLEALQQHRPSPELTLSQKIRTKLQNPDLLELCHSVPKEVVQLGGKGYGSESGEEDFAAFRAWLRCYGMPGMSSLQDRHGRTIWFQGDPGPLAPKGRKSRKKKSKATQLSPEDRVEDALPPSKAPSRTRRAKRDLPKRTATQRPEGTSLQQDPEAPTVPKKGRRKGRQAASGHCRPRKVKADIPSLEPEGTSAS
Description: Inhibition of NEIL1 by quantifying inhibition of NEIL1-mediated cleavage and dissociation of quenched duplex DNA oligonucleotides, measured as fluorescence at 594 nm.

[3] = target: T2, Adenine DNA glycosylase (Homo sapiens) (UniProt Q9UIF7); details: Compound Concentration 10.0 uM, Hit No;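 note: human MUTYH activity read as 594 nm fluorescence from cleavage and release of a quenched DNA duplex, coupled with APE1 for strand incision, lower signal meaning inhibition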
T2 sequence (whole entry): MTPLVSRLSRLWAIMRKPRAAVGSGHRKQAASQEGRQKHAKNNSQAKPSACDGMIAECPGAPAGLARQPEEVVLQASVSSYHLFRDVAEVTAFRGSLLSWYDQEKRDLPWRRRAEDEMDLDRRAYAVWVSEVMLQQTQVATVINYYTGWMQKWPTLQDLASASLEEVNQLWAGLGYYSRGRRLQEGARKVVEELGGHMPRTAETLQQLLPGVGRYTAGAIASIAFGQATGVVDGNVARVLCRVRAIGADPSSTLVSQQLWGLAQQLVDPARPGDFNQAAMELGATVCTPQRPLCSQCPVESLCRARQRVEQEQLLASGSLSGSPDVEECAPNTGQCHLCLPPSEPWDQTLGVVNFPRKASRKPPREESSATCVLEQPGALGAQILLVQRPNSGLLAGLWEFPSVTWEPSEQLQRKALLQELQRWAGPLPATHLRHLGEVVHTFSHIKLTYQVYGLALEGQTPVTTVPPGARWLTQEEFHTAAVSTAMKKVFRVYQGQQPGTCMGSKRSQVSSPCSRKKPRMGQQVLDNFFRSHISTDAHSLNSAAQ
Description: Inhibition of MUTYH by quantifying inhibition of MUTYH-mediated cleavage and dissociation of quenched duplex DNA oligonucleotides, measured as fluorescence at 594 nm. To generate a functional strand incision and increase turn-over this assay is coupled to APE1.

[4] = target: T3, Endonuclease III-like protein 1 (Homo sapiens) (UniProt P78549); details: Compound Concentration 10.0 uM, Hit No;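 note: enzyme assay tracking NTHL1 cutting and release of a quenched double-stranded DNA oligo substrate, read as fluorescence at 594 nm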
T3 sequence (whole entry): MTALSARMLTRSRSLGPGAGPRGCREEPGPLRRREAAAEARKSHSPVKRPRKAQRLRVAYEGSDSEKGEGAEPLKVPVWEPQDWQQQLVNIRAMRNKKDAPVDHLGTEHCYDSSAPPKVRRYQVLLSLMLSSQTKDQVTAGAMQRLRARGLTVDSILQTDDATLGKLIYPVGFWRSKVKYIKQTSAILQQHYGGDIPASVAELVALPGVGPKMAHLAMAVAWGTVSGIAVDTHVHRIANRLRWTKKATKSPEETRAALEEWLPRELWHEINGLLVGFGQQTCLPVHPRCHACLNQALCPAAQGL
Description: Inhibition of NTHL1 by quantifying inhibition of NTHL1-mediated cleavage and dissociation of quenched duplex DNA oligonucleotides, measured as fluorescence at 594 nm.

[5] = target: DNA-3-methyladenine glycosylase (Homo sapiens) (UniProt P29372); details: Compound Concentration 10.0 uM, Hit No;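 note: enzyme assay where MPG cuts a quenched duplex DNA oligonucleotide probe, paired with APE1 for strand incision and turnover, read as fluorescence at 594 nm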
Chain of DNA-3-methyladenine glycosylase (Homo sapiens) (P29372 whole entry): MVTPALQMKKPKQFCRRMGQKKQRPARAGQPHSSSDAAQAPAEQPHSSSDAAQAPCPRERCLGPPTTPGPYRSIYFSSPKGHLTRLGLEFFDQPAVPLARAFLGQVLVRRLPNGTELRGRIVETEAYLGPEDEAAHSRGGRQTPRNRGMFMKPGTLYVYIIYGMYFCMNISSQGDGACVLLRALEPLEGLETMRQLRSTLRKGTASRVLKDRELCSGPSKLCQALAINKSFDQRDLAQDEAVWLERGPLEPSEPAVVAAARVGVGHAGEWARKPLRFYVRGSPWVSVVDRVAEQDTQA
Description: Inhibition of MPG by quantifying inhibition of MPG-mediated cleavage and dissociation of quenched duplex DNA oligonucleotides, measured as fluorescence at 594 nm. To generate a functional strand incision and increase turn-over this assay is coupled to APE1.

[6] = target: G/T mismatch-specific thymine DNA glycosylase (Homo sapiens) (UniProt Q13569); details: Compound Concentration 10.0 uM;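 note: human TDG cleavage of quenched duplex DNA oligonucleotides coupled to APE1, strand release read as fluorescence at 594 nm, inhibition of TDG activity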
Chain of G/T mismatch-specific thymine DNA glycosylase (Homo sapiens) (Q13569 whole entry, the tested form may be a part): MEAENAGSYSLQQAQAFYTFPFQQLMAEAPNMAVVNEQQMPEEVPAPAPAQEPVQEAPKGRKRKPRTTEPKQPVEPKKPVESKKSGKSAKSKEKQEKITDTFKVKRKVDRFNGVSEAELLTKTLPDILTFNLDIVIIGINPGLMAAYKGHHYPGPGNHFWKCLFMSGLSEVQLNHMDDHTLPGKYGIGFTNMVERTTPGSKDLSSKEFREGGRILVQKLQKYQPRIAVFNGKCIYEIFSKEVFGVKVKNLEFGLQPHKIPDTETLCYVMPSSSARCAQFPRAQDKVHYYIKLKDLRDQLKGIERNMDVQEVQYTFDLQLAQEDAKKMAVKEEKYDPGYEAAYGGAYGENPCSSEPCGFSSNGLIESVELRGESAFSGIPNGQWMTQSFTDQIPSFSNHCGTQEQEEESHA
Description: Inhibition of TDG by quantifying inhibition of TDG-mediated cleavage and dissociation of quenched duplex DNA oligonucleotides, measured as fluorescence at 594 nm. To generate a functional strand incision and increase turn-over this assay is coupled to APE1.

[7] = target: Methyl-CpG-binding domain protein 4 (Homo sapiens) (UniProt O95243); details: Compound Concentration 10.0 uM;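 note: MBD4 activity read as fluorescence at 594 nm from cleavage and release of a quenched duplex DNA oligonucleotide, with APE1 coupled to incise the strand and raise turnover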
Chain of Methyl-CpG-binding domain protein 4 (Homo sapiens) (O95243 whole entry, the tested form may be a part): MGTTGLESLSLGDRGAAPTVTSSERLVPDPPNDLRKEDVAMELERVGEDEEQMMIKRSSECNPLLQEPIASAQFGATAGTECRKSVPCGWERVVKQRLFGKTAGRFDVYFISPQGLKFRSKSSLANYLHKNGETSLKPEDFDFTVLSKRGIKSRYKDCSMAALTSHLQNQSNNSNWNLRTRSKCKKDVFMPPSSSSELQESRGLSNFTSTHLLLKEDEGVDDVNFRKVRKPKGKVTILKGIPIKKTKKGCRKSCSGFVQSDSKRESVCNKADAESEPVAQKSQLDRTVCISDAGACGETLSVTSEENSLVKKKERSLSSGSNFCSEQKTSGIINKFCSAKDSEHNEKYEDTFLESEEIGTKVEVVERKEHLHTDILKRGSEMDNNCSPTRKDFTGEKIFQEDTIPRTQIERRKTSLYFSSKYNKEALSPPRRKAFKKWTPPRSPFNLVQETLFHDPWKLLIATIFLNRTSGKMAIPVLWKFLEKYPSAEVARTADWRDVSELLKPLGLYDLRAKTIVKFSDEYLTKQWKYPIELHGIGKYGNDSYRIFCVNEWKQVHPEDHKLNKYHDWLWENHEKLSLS
Description: Inhibition of MBD4 by quantifying inhibition of MBD4-mediated cleavage and dissociation of quenched duplex DNA oligonucleotides, measured as fluorescence at 594 nm. To generate a functional strand incision and increase turn-over this assay is coupled to APE1.

[8] = target: T4, Single-strand selective monofunctional uracil DNA glycosylase (Homo sapiens) (UniProt Q53HV7); details: Compound Concentration 10.0 uM, Hit No;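 note: enzymatic SMUG1 assay coupled with APE1, reading fluorescence at 594 nm released when a quenched double-stranded DNA oligonucleotide substrate is cleaved and separated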
T4 sequence (whole entry): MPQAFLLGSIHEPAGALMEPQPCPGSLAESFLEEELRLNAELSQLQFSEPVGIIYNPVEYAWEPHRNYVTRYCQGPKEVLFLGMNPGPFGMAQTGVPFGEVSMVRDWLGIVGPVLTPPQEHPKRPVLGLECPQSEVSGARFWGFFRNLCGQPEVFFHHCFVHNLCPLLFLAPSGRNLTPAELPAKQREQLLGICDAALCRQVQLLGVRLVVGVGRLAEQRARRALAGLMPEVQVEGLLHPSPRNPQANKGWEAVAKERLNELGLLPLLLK
Description: Inhibition of SMUG1 by quantifying inhibition of SMUG1-mediated cleavage and dissociation of quenched duplex DNA oligonucleotides, measured as fluorescence at 594 nm. To generate a functional strand incision and increase turn-over this assay is coupled to APE1.

[9] = target: Uracil-DNA glycosylase (Homo sapiens) (UniProt P13051); details: Compound Concentration 10.0 uM, Hit No;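 note: UNG excision on a quenched double-stranded DNA oligo probe, with APE1 added for strand incision and turnover, read as fluorescence at 594 nm as strands separate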
Chain of Uracil-DNA glycosylase (Homo sapiens) (P13051 whole entry): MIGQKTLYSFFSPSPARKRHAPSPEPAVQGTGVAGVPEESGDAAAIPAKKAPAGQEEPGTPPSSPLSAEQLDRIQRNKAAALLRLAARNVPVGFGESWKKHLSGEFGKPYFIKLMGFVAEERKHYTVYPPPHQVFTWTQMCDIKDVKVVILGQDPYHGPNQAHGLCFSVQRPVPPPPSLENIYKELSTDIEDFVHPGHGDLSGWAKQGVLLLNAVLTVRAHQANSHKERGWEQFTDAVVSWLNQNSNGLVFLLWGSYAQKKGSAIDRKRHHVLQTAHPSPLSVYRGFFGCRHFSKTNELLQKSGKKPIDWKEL
Description: Inhibition of UNG by quantifying inhibition of UNG-mediated cleavage and dissociation of quenched duplex DNA oligonucleotides, measured as fluorescence at 594 nm. To generate a functional strand incision and increase turn-over this assay is coupled to APE1.

[10] = target: N-glycosylase/DNA lyase (Homo sapiens) (UniProt O15527); details: Compound Concentration 10.0 uM;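 note: OGG1 cleavage of a quenched duplex DNA oligonucleotide, coupled to APE1 for strand incision, read as fluorescence at 594 nm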
Chain of N-glycosylase/DNA lyase (Homo sapiens) (O15527 whole entry): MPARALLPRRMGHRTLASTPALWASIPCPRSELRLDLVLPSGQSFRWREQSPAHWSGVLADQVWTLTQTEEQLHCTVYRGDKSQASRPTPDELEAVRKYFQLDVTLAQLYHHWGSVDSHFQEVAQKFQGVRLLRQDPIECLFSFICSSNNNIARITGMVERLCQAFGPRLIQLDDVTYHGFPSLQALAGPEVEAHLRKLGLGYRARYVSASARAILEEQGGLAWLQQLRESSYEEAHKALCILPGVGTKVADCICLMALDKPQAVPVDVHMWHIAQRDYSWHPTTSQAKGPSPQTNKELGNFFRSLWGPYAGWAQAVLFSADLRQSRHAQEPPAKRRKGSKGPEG
Description: Inhibition of OGG1 by quantifying inhibition of OGG1-mediated cleavage and dissociation of quenched duplex DNA oligonucleotides, measured as fluorescence at 594 nm. To generate a functional strand incision and increase turn-over this assay is coupled to APE1.

Row | Structure (SMILES) | inhibition [1] [%] | inhibition [2] [%] | inhibition [3] [%] | inhibition [4] [%] | inhibition [5] [%] | inhibition ([6]; Hit No) [%] | inhibition ([7]; Hit No) [%] | inhibition [8] [%] | inhibition [9] [%] | inhibition ([10]; Hit No) [%] | inhibition ([6]; Hit Yes) [%] | inhibition ([7]; Hit Yes) [%] | inhibition ([10]; Hit Yes) [%]
1 | CCOC(=O)C1=C(C)NC(C)=C(C(=O)OC)C1c1cccc([N+](=O)[O-])c1 (stereo unspecified) | -2.39 | 1.49 | -7.47 | 12.9 | 2.85 | 1.01 | -5.63 | 2.81 | -2.15 | -2.89 | – | – | –
2 | CC(C)(C)C1CCc2c(sc(NC(=O)c3ccco3)c2C(=O)O)C1 (stereo unspecified) | 17.7 | 4.9 | 30.5 | 33.6 | -0.565 | 25.9 | 32.2 | -0.636 | -0.0242 | 36.3 | – | – | –
3 | Cc1cc(OCCCS(C)(=O)=O)cc(C)c1-c1cccc(COc2ccc3c(c2)OC[C@H]3CC(=O)O)c1 | 8.25 | -4.36 | 49.2 | 10.7 | 12.1 | 44.4 | 46.9 | 12.3 | -3.46 | 18.3 | – | – | –
4 | NC(=O)NN=Cc1ccc(Oc2ccc(F)cc2)cc1 | -3.41 | 9.49 | 8.22 | 0.568 | 2.76 | 11.3 | -2.63 | -4.59 | -5.79 | -9.24 | – | – | –
5 | COc1ccccc1C(=O)Nc1cccc(NC(=O)c2cccc(C)c2)c1 | -3.15 | -5.33 | 8.28 | 15.4 | 18.5 | 19.8 | 14.3 | -5.33 | -7.92 | -2.96 | – | – | –
6 | Nc1nc2c(c(N3CCNCC3)n1)CCC1=C2[C@@H]2CCCC[C@@H]2O1 | 4.51 | -3.91 | 3.48 | 7.79 | -2.48 | 6.18 | 0.963 | 13.7 | -2.85 | -5.22 | – | – | –
7 | O=C1C[C@@H]2OCC=C3CN4CC[C@]56c7ccccc7N1[C@H]5[C@H]2[C@H]3C[C@H]46 | -1.88 | 0.602 | 38.1 | 10.5 | -1.64 | 11.6 | 11.5 | -0.692 | -3.11 | -7.16 | – | – | –
8 | O=S(=O)(Nc1nnc2cc(OCC34CC5CC(CC(C5)C3)C4)c(C3CC3)cn12)C1CC1 | 11.9 | 6.23 | 84.7 | 10.5 | 62.1 | – | – | 11.5 | 12 | – | 73.8 | 80.9 | 53
9 | Cc1c(C2=CCN(C(=O)N(C)C(C)C)CC2)nnn1-c1cccnc1F | 9 | -0.649 | 17 | -9.8 | -1.32 | 17.2 | 0.847 | 11.5 | -8.86 | -1.95 | – | – | –
10 | CCCC(=O)N[C@@H](Cc1ccc(O)cc1)C(=O)NCCCCCCCNCCCCN | -1.62 | 4.46 | -4.41 | -3.56 | 2.86 | 12.1 | 20.4 | -0.749 | -4.14 | -0.213 | – | – | –
11 | CCc1cc(C(C)=O)c(O)cc1OCCCCCC(C)(C)c1nn[nH]n1 | -8.97 | -0.204 | 7.7 | 9.99 | 13 | 21.1 | 24 | 0.79 | -4.34 | 16.1 | – | – | –
12 | C[C@]1(C(=O)N(CCCC(=O)O)Cc2cccc(Cl)c2)CCN1C(=O)c1csc2ccccc12 | -3.73 | 3.5 | 11.5 | -9.8 | -1.32 | 25.5 | -2.17 | 7.04 | -7.61 | 3.32 | – | – | –
13 | Cc1cc(C)c(N)c(C#Cc2cccc(F)c2)n1 | 5.26 | 0.982 | 4.63 | -3.21 | 3.92 | 17.2 | 6.71 | 6.75 | -6.05 | 4.23 | – | – | –
14 | CC(C)(O)c1ccccc1CC[C@@H](SCC1(CC(=O)O)CC1)c1cccc(/C=C/c2ccc3ccc(Cl)cc3n2)c1 | 14 | – | 47.1 | 9.99 | 53.9 | – | 56.1 | 11.9 | 8.83 | – | 66.5 | – | 61.2
15 | CCCCC[C@H](O)/C=C/[C@H]1[C@H](O)CC(=O)[C@@H]1CCCCCCC(=O)O | – | 4.31 | -0.521 | 22.9 | 6.53 | 19.5 | 3.22 | -7.25 | -7.06 | -9.68 | – | – | –
16 | N[C@@H](Cn1cc(F)c(=O)[nH]c1=O)C(=O)O | – | -2.06 | 6.98 | 0.568 | 0.976 | 12.4 | 3.94 | -7.64 | -5.2 | -9.73 | – | – | –
17 | COc1ccc2[nH]c(I)c(CCNC(C)=O)c2c1 | – | -5.77 | 10.2 | -1.91 | -6.47 | 3.33 | 8.97 | -7.64 | -9.84 | -3.69 | – | – | –
18 | CN[C@@H]1Cc2cccc3[nH]c(=O)n(c23)C1 | – | -2.21 | 46.8 | 21.2 | -1.72 | 15.8 | 11.7 | 0.551 | -3.54 | -6.94 | – | – | –
19 | CCCCc1nc(Cl)c(CO)n1Cc1ccc(-c2ccccc2-c2nnn[nH]2)cc1 | – | -2.87 | 4.88 | 11.4 | -2.79 | 8.31 | 1.95 | -6.19 | -9.96 | -0.971 | – | – | –
20 | COc1cc(N)c(Cl)cc1C(=O)NC1CN2CCC1CC2 (stereo unspecified) | – | -0.139 | 0.595 | 17.1 | -7.22 | -0.441 | -9.33 | -3.07 | -6.64 | 1 | – | – | –
21 | O=C(NCCNCC(O)COc1ccc(O)cc1)N1CCOCC1 (stereo unspecified) | – | 1.79 | -0.651 | 8 | -2.83 | 9.41 | 9.4 | -1.43 | -5.67 | -7.78 | – | – | –
22 | Cc1cc(C)cc(-c2cnc3cc(Cl)c(-c4cccc(O)c4)cc3c2OCCCN)c1 | 2.26 | – | -5.74 | -4.67 | 9.86 | 24.4 | 9.27 | 14.7 | -7.52 | -3.25 | – | – | –

Source: ChEMBL document CHEMBL5665443, “Enzyme Inhibitor Single Concentration assay results for EUbOPEN Chemogenomics Library” (2024)
